Patent US10189816B2, “Substituted pyridines as inhibitors of human immunodeficiency virus replication” (priority 2015, dated 2019)

These molecules were tested on NL-RLuc virus (assay: Inhibition of HIV replication (NL-RLuc reporter virus in MT-2 cells, luciferase readout)). Conditions: Human immunodeficiency virus 1, MT2, 120 h, read-out: Activity.
Assay type: cell-based
In short: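 MT-2 cells infected with NL4-3-derived NL-RLuc reporter virus (Renilla luciferase replacing part of nef) with serial compound dilutions, RPMI 1640 + 10% FBS; 5 days. Growth by luciferase; EC50 from median effect equation, ≥2 experiments.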
Molecule `Cc1nc(C)c([C@H](OC(C)(C)C)C(=O)O)c(N2CCC(C)(C)CC2)c1-c1ccc2c(c1)CCN(Cc1c(F)cc(F)cc1F)C2` [Compound 58, (S)-2-(tert-butoxy)-2-(4-(4,4-dimethylpiperidin-1-yl)-2,6-dimethyl-5-(2-(2,4,6-trifluorobenzyl)-1,2,3,4-tetrahydroisoquinolin-6-yl)pyridin-3-yl)acetic acid] has an EC50 of less than 0.1 µM. With `Cc1nc(C)c([C@H](OC(C)(C)C)C(=O)O)c(N2CCC(C)(C)CC2)c1-c1ccc2c(c1)CCN(Cc1cccc(OC(F)F)c1)C2` [Compound 118, (S)-2-(tert-butoxy)-2-(5-(2-(3-(difluoromethoxy)benzyl)-1,2,3,4-tetrahydroisoquinolin-6-yl)-4-(4,4-dimethylpiperidin-1-yl)-2,6-dimethylpyridin-3-yl)acetic acid] the EC50 was less than 0.1 µM. For `Cc1nc(C)c([C@H](OC(C)(C)C)C(=O)O)c(N2CCC(C)(C)CC2)c1-c1ccc2c(c1)CCN(Cc1cccc(-c3ccccc3)c1)C2` [Compound 11, (S)-2-(5-(2-([1,1′-biphenyl]-3-ylmethyl)-1,2,3,4-tetrahydroisoquinolin-6-yl)-4-(4,4-dimethylpiperidin-1-yl)-2,6-dimethylpyridin-3-yl)-2-(tert-butoxy)acetic acid], the EC50 was less than 0.1 µM. Work on `COc1ccc(F)c(CN2CCc3cc(-c4c(C)nc(C)c([C@H](OC(C)(C)C)C(=O)O)c4N4CCC(C)(C)CC4)ccc3C2)c1` [Compound 116, (S)-2-(tert-butoxy)-2-(4-(4,4-dimethylpiperidin-1-yl)-5-(2-(2-fluoro-5-methoxybenzyl)-1,2,3,4-tetrahydroisoquinolin-6-yl)-2,6-dimethylpyridin-3-yl)acetic acid] yielded an EC50 of less than 0.1 µM. `Cc1cc(OC(C)C)cc(C)c1CN1CCc2cc(-c3c(C)nc(C)c([C@H](OC(C)(C)C)C(=O)O)c3N3CCC(C)(C)CC3)ccc2C1` [Compound 160, (S)-2-(tert-butoxy)-2-(4-(4,4-dimethylpiperidin-1-yl)-5-(2-(4-isopropoxy-2,6-dimethylbenzyl)-1,2,3,4-tetrahydroisoquinolin-6-yl)-2,6-dimethylpyridin-3-yl)acetic acid] showed an EC50 of less than 0.1 µM. `Cc1nc(C)c([C@H](OC(C)(C)C)C(=O)O)c(N2CCC(C)(C)CC2)c1-c1ccc2c(c1)CCN(Cc1cccc(C(F)(F)F)c1C)C2` [Compound 15, (S)-2-(tert-butoxy)-2-(4-(4,4-dimethylpiperidin-1-yl)-2,6-dimethyl-5-(2-(2-methyl-3-(trifluoromethyl)benzyl)-1,2,3,4-tetrahydroisoquinolin-6-yl)pyridin-3-yl)acetic acid] showed an EC50 of less than 0.1 µM. `COc1ccc(C(C)C)cc1CN1CCc2cc(-c3c(C)nc(C)c([C@H](OC(C)(C)C)C(=O)O)c3N3CCC(C)(C)CC3)ccc2C1` [Compound 139, (S)-2-(tert-butoxy)-2-(4-(4,4-dimethylpiperidin-1-yl)-5-(2-(5-isopropyl-2-methoxybenzyl)-1,2,3,4-tetrahydroisoquinolin-6-yl)-2,6-dimethylpyridin-3-yl)acetic acid] showed an EC50 of less than 0.1 µM. `Cc1cccc(C)c1CN1CCc2cc(-c3c(C)nc(C)c([C@H](OC(C)(C)C)C(=O)O)c3N3CCC(C)(C)CC3)ccc2C1` [Compound 33, (S)-2-(tert-butoxy)-2-(5-(2-(2,6-dimethylbenzyl)-1,2,3,4-tetrahydroisoquinolin-6-yl)-4-(4,4-dimethylpiperidin-1-yl)-2,6-dimethylpyridin-3-yl)acetic acid] gave an EC50 of less than 0.1 µM. Work on `Cc1nc(C)c([C@H](OC(C)(C)C)C(=O)O)c(N2CCC(C)(C)CC2)c1-c1ccc2c(c1)CCN(Cc1ccc(Cl)cc1Cl)C2` [Compound 53, (S)-2-(tert-butoxy)-2-(5-(2-(2,4-dichlorobenzyl)-1,2,3,4-tetrahydroisoquinolin-6-yl)-4-(4,4-dimethylpiperidin-1-yl)-2,6-dimethylpyridin-3-yl)acetic acid] yielded an EC50 of less than 0.1 µM. Molecule `Cc1nc(C)c([C@H](OC(C)(C)C)C(=O)O)c(N2CCC(C)(C)CC2)c1-c1ccc2c(c1)CCN(Cc1cccc(C(=O)O)c1)C2` [Compound 10, (S)-3-((6-(5-(tert-butoxy(carboxy)methyl)-4-(4,4-dimethylpiperidin-1-yl)-2,6-dimethylpyridin-3-yl)-3,4-dihydroisoquinolin-2(1H)-yl)methyl)benzoic acid] has an EC50 greater than 1 µM. Molecule `Cc1nc(C)c([C@H](OC(C)(C)C)C(=O)O)c(N2CCC(C)(C)CC2)c1-c1ccc2c(c1)CCN(Cc1c(F)ccc(F)c1F)C2` [Compound 44, (S)-2-(tert-butoxy)-2-(4-(4,4-dimethylpiperidin-1-yl)-2,6-dimethyl-5-(2-(2,3,6-trifluorobenzyl)-1,2,3,4-tetrahydroisoquinolin-6-yl)pyridin-3-yl)acetic acid] has an EC50 of less than 0.1 µM. `Cc1nc(C)c([C@H](OC(C)(C)C)C(=O)O)c(N2CCC(C)(C)CC2)c1-c1ccc2c(c1)CCN(Cc1ccc(C(C)(C)C)cc1)C2` [Compound 27, (S)-2-(tert-butoxy)-2-(5-(2-(4-(tert-butyl)benzyl)-1,2,3,4-tetrahydroisoquinolin-6-yl)-4-(4,4-dimethylpiperidin-1-yl)-2,6-dimethylpyridin-3-yl)acetic acid] was tested, and the EC50 was less than 0.1 µM. `COc1ccc(F)c(CN2CCc3cc(-c4c(C)nc(C)c([C@H](OC(C)(C)C)C(=O)O)c4N4CCC(C)(C)CC4)ccc3C2)c1F` [Compound 92, (S)-2-(tert-butoxy)-2-(5-(2-(2,6-difluoro-3-methoxybenzyl)-1,2,3,4-tetrahydroisoquinolin-6-yl)-4-(4,4-dimethylpiperidin-1-yl)-2,6-dimethylpyridin-3-yl)acetic acid] gave an EC50 of less than 0.1 µM. `COc1ccc(CN2CCc3cc(-c4c(C)nc(C)c([C@H](OC(C)(C)C)C(=O)O)c4N4CCC(C)(C)CC4)ccc3C2)c(Cl)c1Cl` [Compound 91, (S)-2-(tert-butoxy)-2-(5-(2-(2,3-dichloro-4-methoxybenzyl)-1,2,3,4-tetrahydroisoquinolin-6-yl)-4-(4,4-dimethylpiperidin-1-yl)-2,6-dimethylpyridin-3-yl)acetic acid] gave an EC50 of less than 0.1 µM. `Cc1nc(C)c([C@H](OC(C)(C)C)C(=O)O)c(N2CCC(C)(C)CC2)c1-c1ccc2c(c1)CCN(Cc1c(F)cccc1F)C2` [Compound 50, (S)-2-(tert-butoxy)-2-(5-(2-(2,6-difluorobenzyl)-1,2,3,4-tetrahydroisoquinolin-6-yl)-4-(4,4-dimethylpiperidin-1-yl)-2,6-dimethylpyridin-3-yl)acetic acid] gave an EC50 of less than 0.1 µM. In the case of `Cc1nc(C)c([C@H](OC(C)(C)C)C(=O)O)c(N2CCC(C)(C)CC2)c1-c1ccc2c(c1)CCN(Cc1cccc(Cl)c1Cl)C2` [Compound 40, (S)-2-(tert-butoxy)-2-(5-(2-(2,3-dichlorobenzyl)-1,2,3,4-tetrahydroisoquinolin-6-yl)-4-(4,4-dimethylpiperidin-1-yl)-2,6-dimethylpyridin-3-yl)acetic acid], the EC50 is reported as less than 0.1 µM. Work on `COc1cc(CN2CCc3cc(-c4c(C)nc(C)c([C@H](OC(C)(C)C)C(=O)O)c4N4CCC(C)(C)CC4)ccc3C2)ccc1F` [Compound 101, (S)-2-(tert-butoxy)-2-(4-(4,4-dimethylpiperidin-1-yl)-5-(2-(4-fluoro-3-methoxybenzyl)-1,2,3,4-tetrahydroisoquinolin-6-yl)-2,6-dimethylpyridin-3-yl)acetic acid] yielded an EC50 of less than 0.1 µM.

Same assay, conditions: Human immunodeficiency virus 1, MT2, 120 h, read-out: EC50 μM
`COc1ccc(F)c(CN2CCc3cc(-c4c(C)nc(C)c([C@H](OC(C)(C)C)C(=O)O)c4N4CCC(C)(C)CC4)ccc3C2)c1` [Compound 116, (S)-2-(tert-butoxy)-2-(4-(4,4-dimethylpiperidin-1-yl)-5-(2-(2-fluoro-5-methoxybenzyl)-1,2,3,4-tetrahydroisoquinolin-6-yl)-2,6-dimethylpyridin-3-yl)acetic acid] gave an EC50 of 0.002 µM. `COc1ccc(C(C)C)cc1CN1CCc2cc(-c3c(C)nc(C)c([C@H](OC(C)(C)C)C(=O)O)c3N3CCC(C)(C)CC3)ccc2C1` [Compound 139, (S)-2-(tert-butoxy)-2-(4-(4,4-dimethylpiperidin-1-yl)-5-(2-(5-isopropyl-2-methoxybenzyl)-1,2,3,4-tetrahydroisoquinolin-6-yl)-2,6-dimethylpyridin-3-yl)acetic acid] was tested, and the EC50 was 0.03 µM. `Cc1nc(C)c([C@H](OC(C)(C)C)C(=O)O)c(N2CCC(C)(C)CC2)c1-c1ccc2c(c1)CCN(Cc1cccc(C(=O)O)c1)C2` [Compound 10, (S)-3-((6-(5-(tert-butoxy(carboxy)methyl)-4-(4,4-dimethylpiperidin-1-yl)-2,6-dimethylpyridin-3-yl)-3,4-dihydroisoquinolin-2(1H)-yl)methyl)benzoic acid] was tested, and the EC50 was 1.48 µM.
